These results are taken from ChEMBL document CHEMBL1124519 (J Med Chem, 1989).

One data set has as its system L1210. As to the kind of experiment: The cytotoxicity (LC99) was evaluated in vitro against L1210 cells obtained from cultured mice. It is filed as functional, Mus musculus.
The next data set is filed under the species Homo sapiens. In words: Half-life period obtained from linear regression of metabolite concentration in Human plasma containing 100 mM phosphate, at pH 7.4. The data set is classed as ADME.
A short description of data set [1]: Half-life period obtained from linear regression of metabolite concentration in aqueous buffer of pH 7.4 at 37 degrees Celsius in 100 mM phosphate buffer. The data set is classed as ADME.
The nature of data set [2]: Half-life period obtained from linear regression of metabolite concentration in aqueous buffer of pH 7.4 at 37 degrees Celsius in 200 mM phosphate buffer. It is filed as ADME.

As to `O=CCCOP(=O)(NCCCl)NCCCl.O=P1(NCCCl)OCCC(O)N1CCCl`, the LC99 with L1210 amounted to 12.6 µM. For the same molecule, the T1/2 in the data set listed under Homo sapiens was 10 min; in data set [1], 50 min.

`O=P(O)(NCCCl)NCCCl` [PALIFOSFAMIDE]: the LC99 in the data set on L1210 was 70 µM. The T1/2 in data set [2] is given as 61 min.
